Measured values: paper PMC11702208 (RSC Advances, 2025)

Assays:
[1] = tested on: CCRF-CEM; assay: NCI cytotoxicity screen; type: cell-based, human; details: 10.0 μM one dose
[2] = tested on: MOLT-4; assay: NCI cytotoxicity screen; type: cell-based, human; details: 10.0 μM one dose
[3] = tested on: SR; assay: NCI cytotoxicity screen; type: cell-based, human; details: 10.0 μM one dose
[4] = tested on: A549/ATCC; assay: NCI cytotoxicity screen; type: cell-based, human; details: 10.0 μM one dose; A549/ATCC
[5] = tested on: EKVX; assay: NCI cytotoxicity screen; type: cell-based, human; details: 10.0 μM one dose
[6] = tested on: NCI-H226; assay: NCI cytotoxicity screen; type: cell-based, human; details: 10.0 μM one dose
[7] = tested on: NCI-H522; assay: NCI cytotoxicity screen; type: cell-based, human; details: 10.0 μM one dose
[8] = tested on: HCT-15; assay: NCI cytotoxicity screen; type: cell-based, human; details: 10.0 μM one dose
[9] = tested on: HT29; assay: NCI cytotoxicity screen; type: cell-based, human; details: 10.0 μM one dose; HT-29
[10] = tested on: KM12; assay: NCI cytotoxicity screen; type: cell-based, human; details: 10.0 μM one dose; KM-12
[11] = tested on: SF-268; assay: NCI cytotoxicity screen; type: cell-based, human; details: 10.0 μM one dose
[12] = tested on: SNB-19; assay: NCI cytotoxicity screen; type: cell-based, human; details: 10.0 μM one dose
[13] = tested on: SNB-75; assay: NCI cytotoxicity screen; type: cell-based, human; details: 10.0 μM one dose
[14] = tested on: LOX IMVI; assay: NCI cytotoxicity screen; type: cell-based, human; details: 10.0 μM one dose
[15] = tested on: MDA-MB-435; assay: NCI cytotoxicity screen; type: cell-based, human; details: 10.0 μM one dose
[16] = tested on: SK-MEL-5; assay: NCI cytotoxicity screen; type: cell-based, human; details: 10.0 μM one dose
[17] = tested on: UACC-62; assay: NCI cytotoxicity screen; type: cell-based, human; details: 10.0 μM one dose
[18] = tested on: OVCAR-3; assay: NCI cytotoxicity screen; type: cell-based, human; details: 10.0 μM one dose; OVCAR-3
[19] = tested on: CAKI-1; assay: NCI cytotoxicity screen; type: cell-based, human; details: 10.0 μM one dose
[20] = tested on: RXF 393; assay: NCI cytotoxicity screen; type: cell-based, human; details: 10.0 μM one dose
[21] = tested on: UO-31; assay: NCI cytotoxicity screen; type: cell-based, human; details: 10.0 μM one dose
[22] = tested on: PC-3; assay: NCI cytotoxicity screen; type: cell-based, human; details: 10.0 μM one dose
[23] = tested on: MCF7; assay: NCI cytotoxicity screen; type: cell-based, human; details: 10.0 μM one dose; MCF-7
[24] = tested on: MDA-MB-231/ATCC; assay: NCI cytotoxicity screen; type: cell-based, human; details: 10.0 μM one dose; MDA-MB-231/ATCC
[25] = tested on: HS 578T; assay: NCI cytotoxicity screen; type: cell-based, human; details: 10.0 μM one dose; HS-578T
[26] = tested on: T-47D; assay: NCI cytotoxicity screen; type: cell-based, human; details: 10.0 μM one dose; T-47D
[27] = tested on: MDA-MB-468; assay: NCI cytotoxicity screen; type: cell-based, human; details: 10.0 μM one dose
[28] = tested on: 59 cancer cell lines; assay: NCI cytotoxicity screen, full panel; type: cell-based, human; details: 10.0 μM one dose, 59 cell lines
[29] = target: T1, COX-2 (Ovis aries, UniProt P79208); assay: Colorimetric COX; type: biochemical, ovine
T1 sequence (P79208 17-603): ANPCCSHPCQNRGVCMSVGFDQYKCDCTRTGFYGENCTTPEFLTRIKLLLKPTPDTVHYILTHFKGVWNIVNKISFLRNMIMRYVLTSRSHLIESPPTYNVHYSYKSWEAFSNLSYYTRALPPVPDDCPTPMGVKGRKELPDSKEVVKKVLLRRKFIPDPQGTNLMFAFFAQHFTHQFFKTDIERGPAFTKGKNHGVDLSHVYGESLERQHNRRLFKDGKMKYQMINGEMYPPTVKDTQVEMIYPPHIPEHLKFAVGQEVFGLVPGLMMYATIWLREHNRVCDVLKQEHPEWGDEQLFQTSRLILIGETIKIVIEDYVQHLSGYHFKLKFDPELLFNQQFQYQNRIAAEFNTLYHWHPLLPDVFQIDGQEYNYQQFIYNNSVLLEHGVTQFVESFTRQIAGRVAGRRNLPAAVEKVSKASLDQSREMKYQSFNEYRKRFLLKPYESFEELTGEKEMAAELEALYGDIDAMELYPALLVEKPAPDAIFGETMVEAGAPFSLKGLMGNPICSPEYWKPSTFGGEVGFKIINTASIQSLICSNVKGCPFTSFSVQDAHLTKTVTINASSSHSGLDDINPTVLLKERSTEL

[30] = target: EGFR (Homo sapiens, UniProt P00533); assay: biochemical; details: IC50 EGFR inhibition
Sequence of EGFR (P00533 25-1210): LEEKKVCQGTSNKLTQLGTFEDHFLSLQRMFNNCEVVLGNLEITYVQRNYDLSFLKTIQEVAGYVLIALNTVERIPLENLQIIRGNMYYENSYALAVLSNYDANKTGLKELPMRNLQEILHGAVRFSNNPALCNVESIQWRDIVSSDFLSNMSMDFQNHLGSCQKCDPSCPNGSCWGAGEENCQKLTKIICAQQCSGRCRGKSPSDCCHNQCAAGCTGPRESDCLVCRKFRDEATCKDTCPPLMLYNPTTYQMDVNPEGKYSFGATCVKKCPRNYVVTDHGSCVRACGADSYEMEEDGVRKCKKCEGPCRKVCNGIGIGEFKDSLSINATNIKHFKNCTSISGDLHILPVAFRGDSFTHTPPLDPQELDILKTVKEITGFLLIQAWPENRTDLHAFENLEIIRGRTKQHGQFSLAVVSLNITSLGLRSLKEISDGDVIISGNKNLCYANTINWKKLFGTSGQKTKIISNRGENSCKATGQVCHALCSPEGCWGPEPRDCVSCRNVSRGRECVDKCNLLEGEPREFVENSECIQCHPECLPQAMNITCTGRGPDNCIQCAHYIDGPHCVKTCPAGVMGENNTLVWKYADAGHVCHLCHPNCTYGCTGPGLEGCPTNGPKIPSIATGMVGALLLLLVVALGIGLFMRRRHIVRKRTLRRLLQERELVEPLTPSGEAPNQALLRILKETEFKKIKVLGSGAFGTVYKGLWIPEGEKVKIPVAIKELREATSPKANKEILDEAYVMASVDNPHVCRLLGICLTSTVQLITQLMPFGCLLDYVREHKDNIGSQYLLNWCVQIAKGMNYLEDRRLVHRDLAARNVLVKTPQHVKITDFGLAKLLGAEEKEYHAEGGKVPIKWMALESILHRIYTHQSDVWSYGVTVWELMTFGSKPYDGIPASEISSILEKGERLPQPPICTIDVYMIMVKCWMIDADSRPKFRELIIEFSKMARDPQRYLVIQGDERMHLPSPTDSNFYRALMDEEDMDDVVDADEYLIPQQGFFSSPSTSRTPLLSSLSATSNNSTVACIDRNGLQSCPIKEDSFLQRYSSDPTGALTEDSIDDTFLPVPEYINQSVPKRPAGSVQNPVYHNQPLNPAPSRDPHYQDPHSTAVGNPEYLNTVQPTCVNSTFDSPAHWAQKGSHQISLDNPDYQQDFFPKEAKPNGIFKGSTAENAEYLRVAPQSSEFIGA

[31] = target: HER2 (Homo sapiens, UniProt P04626); assay: HER2 tyrosine kinase assay; type: biochemical; details: IC50 HER2 inhibition
Sequence of HER2 (P04626 23-1255): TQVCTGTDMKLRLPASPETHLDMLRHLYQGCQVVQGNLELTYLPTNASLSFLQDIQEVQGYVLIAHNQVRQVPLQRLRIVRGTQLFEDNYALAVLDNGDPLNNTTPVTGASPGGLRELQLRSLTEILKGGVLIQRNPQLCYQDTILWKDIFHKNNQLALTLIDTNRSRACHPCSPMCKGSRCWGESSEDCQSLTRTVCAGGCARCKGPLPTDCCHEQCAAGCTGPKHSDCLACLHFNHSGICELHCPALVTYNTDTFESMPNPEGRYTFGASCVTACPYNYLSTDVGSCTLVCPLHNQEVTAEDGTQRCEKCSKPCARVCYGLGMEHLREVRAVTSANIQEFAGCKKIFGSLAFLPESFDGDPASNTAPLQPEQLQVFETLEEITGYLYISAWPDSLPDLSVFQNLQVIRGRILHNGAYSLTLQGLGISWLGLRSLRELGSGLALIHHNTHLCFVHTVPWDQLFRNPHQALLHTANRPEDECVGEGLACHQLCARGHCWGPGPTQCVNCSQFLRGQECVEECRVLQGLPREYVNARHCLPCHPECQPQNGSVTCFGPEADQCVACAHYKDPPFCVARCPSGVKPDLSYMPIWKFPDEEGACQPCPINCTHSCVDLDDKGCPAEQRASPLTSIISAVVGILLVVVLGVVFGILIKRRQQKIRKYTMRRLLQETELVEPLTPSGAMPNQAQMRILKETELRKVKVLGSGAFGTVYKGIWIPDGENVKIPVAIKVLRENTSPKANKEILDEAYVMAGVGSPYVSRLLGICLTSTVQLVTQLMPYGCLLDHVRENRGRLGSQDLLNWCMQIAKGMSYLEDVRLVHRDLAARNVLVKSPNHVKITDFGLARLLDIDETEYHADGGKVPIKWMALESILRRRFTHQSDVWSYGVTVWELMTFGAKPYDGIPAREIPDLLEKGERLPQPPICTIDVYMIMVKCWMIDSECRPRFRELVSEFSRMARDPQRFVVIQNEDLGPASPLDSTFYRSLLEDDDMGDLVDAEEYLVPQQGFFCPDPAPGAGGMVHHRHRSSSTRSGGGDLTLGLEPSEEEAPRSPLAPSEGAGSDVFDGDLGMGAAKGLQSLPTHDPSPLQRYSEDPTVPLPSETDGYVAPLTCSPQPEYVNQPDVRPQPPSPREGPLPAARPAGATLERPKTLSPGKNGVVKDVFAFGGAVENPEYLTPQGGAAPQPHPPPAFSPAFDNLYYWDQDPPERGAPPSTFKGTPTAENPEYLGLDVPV

[32] = target: CDK9 (Homo sapiens, UniProt P50750); assay: biochemical; details: IC50 CDK9 inhibition
Sequence of CDK9 (P50750 whole entry): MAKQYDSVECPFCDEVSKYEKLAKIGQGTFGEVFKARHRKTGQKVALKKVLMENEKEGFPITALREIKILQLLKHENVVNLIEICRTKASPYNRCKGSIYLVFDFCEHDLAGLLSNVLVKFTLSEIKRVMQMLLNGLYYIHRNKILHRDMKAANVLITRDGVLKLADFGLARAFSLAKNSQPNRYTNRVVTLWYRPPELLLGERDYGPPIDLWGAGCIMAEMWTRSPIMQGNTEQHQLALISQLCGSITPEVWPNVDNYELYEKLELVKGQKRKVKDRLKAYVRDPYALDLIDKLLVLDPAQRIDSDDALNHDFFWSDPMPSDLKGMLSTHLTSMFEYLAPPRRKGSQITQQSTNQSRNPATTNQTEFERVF
Sequence of CDK9 (O60563 whole entry partner): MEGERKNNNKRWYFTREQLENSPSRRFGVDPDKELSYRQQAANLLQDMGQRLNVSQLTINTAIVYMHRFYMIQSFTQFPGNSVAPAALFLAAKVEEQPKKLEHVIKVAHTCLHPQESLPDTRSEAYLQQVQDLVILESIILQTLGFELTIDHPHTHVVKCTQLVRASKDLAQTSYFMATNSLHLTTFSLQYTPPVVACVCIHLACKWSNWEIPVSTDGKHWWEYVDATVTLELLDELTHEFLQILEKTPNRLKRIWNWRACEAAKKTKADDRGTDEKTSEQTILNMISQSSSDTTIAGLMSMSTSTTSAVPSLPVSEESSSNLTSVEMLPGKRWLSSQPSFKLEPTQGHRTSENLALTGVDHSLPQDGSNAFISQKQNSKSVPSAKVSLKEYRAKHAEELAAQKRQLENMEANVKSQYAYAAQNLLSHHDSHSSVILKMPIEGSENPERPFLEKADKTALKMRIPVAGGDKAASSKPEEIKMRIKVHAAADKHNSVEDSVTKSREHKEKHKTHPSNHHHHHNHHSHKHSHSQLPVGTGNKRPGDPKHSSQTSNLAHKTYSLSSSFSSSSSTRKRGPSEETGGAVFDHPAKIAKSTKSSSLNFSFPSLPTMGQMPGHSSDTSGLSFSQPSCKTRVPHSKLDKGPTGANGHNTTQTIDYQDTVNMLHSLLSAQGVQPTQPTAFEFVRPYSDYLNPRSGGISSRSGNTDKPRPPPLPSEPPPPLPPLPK

[33] = tested on: K-562; details: 10.0 μM one dose
[34] = tested on: RPMI-8226; assay: NCI cytotoxicity screen; type: cell-based, human; details: 10.0 μM one dose
[35] = tested on: NCI-H23; assay: NCI cytotoxicity screen; type: cell-based, human; details: 10.0 μM one dose
[36] = tested on: HCT-116; assay: NCI cytotoxicity screen; type: cell-based, human; details: 10.0 μM one dose
[37] = tested on: SF-295; assay: NCI cytotoxicity screen; type: cell-based, human; details: 10.0 μM one dose
[38] = tested on: SF-539; assay: NCI cytotoxicity screen; type: cell-based, human; details: 10.0 μM one dose
[39] = tested on: U251; assay: NCI cytotoxicity screen; type: cell-based, human; details: 10.0 μM one dose; U-251
[40] = tested on: A498; assay: NCI cytotoxicity screen; type: cell-based, human; details: 10.0 μM one dose; A-498
[41] = tested on: DU-145; assay: NCI cytotoxicity screen; type: cell-based, human; details: 10.0 μM one dose
[42] = tested on: Ovarian cancer subpanel tumor cell lines; assay: NCI cytotoxicity screen, subpanel; type: cell-based, human; details: 10 μM; range over ovarian cancer cell lines

`Cc1ccc(C=NNC(=O)CSc2nc3ccccc3c(=O)n2Cc2ccc(S(N)(=O)=O)cc2)cc1` [Compound 9, 4-((2-((2-(2-(4-Methylbenzylidene)hydrazineyl)-2-oxoethyl)thio)-4-oxoquinazolin-3(4H)-yl)methyl)benzenesulfonamide] gave a GI % [1] of 13%, a GI % [2] of 14% and a GI % [3] of 51%. It also gave a GI % [4] of 15%, a GI % [5] of 10% and a GI % [6] of 16%. For the same compound, the GI % [7] was 58%, the GI % [8] was 11% and the GI % [9] was 14%. It also gave a GI % [10] of 14%, a GI % [11] of 22% and a GI % [12] of 11%. It also gave a GI % [13] of 29%, a GI % [14] of 18% and a GI % [15] of 54%. It also gave a GI % [16] of 26%, a GI % [17] of 22% and a GI % [18] of 21%. The GI % [19] was 36%, the GI % [20] was 14% and the GI % [21] was 20%. For the same compound, the GI % [22] was 11%, the GI % [23] was 41% and the GI % [24] was 11%. It also gave a GI % [25] of 12%, a GI % [26] of 19% and a GI % [27] of 19%. For the same compound, the “MG% (mean growth percent)” value [28] was 88.5%, the IC50 [29] was 15400 ± 320 nM and the IC50 [30] was 378 ± 9.26 nM. For the same compound, the IC50 [31] was 229 nM, the IC50 [32] was 316 ± 7.76 nM and the GI % [33] was 37%.

For `Cc1ccc(NC(=O)c2ccc(CN3CCN(C)CC3)cc2)cc1Nc1nccc(-c2cccnc2)n1` [Imatinib, reference compound], the GI % [2] was 18%, the GI % [34] was 12.6% and the GI % [3] was 14.6%. For the same compound, the GI % [5] was 15.7%, the GI % [6] was 10.6% and the GI % [35] was 17.1%. It also gave a GI % [36] of 18.6%, a GI % [8] of 11.5% and a GI % [9] of 47.1%. For the same compound, the GI % [37] was 15.1%, the GI % [38] was 24.5% and the GI % [39] was 10.6%. It also gave a GI % [14] of 11.6%, a GI % [40] of 13.7% and a GI % [22] of 10.6%. It also gave a GI % [41] of 14.4%, a GI % [24] of 11.2% and a GI % [26] of 18.6%. For the same compound, the GI % [27] was 29.1%, the GI % [42] was under 10% and the “MG% (mean growth percent)” value [28] was 92.62%. The “MG% (mean growth percent)” value ([28]; listed as imatinib) was 92.6%.
